Test results taken from patent US20230338564A1, “NEODEGRADER CONJUGATES” (Orum Therapeutics, Inc., priority 2020, published 2023).
Like-named read-outs stand apart in the source and are kept apart here.

Legend:
HL-60 cell line = assay: In vitro antiproliferation assay, General Procedure 2 (CCK-8); type: cell-based
Text: (§1) Cell Culture: Cell lines were obtained from the American Type Culture Collection (ATCC, Manassas, VA, USA) or Deutsche Sammlung von Mikroorganismen und Zellkulturen (DSMZ, Braunschweig, Germany) and maintained according to the culturing conditions specified by ATCC or DSMZ. Cells were thawed out and maintained in culture for at least two passages before proceeding with experimental conditions.
(§2) Cytotoxicity assays: For adherent cell lines, the cells were dissociated with enzyme-free PBS-based cell dissociation buffer (Gibco, USA) and plated on tissue culture treated 96-well flat bottom polystyrene plates (Costar, Corning, USA) at appropriate cell densities depending on doubling time of the cells. 18 hours after plating, cells were treated with test articles at appropriate concentrations starting at 100 nM and diluted in 4-fold serial dilutions. For suspension cell lines, the cells were seeded on the same day of treatment and cells were treated as described above. Adherent cells were treated for 5 days and suspension cells were treated for 3 days. Cell proliferation was assessed using the Cell Counting Kit-8 (CCK-8, Dojindo Laboratories, Japan) and measurements were obtained using the Promega GloMax Discover plate reader (Promega, USA). Data were analyzed using GraphPad Prism software (GraphPad Software, San Diego, CA). All data points were obtained from technical triplicates and the experiments were validated using three biological replicates.

SNU182 cell line = assay: as above; type: cell-based; conditions: Homo sapiens, SNU-182; Liver
Text: as §1, §2

OCI-M2 cell line = assay: as above; type: cell-based; conditions: Acute myelocytic leukemia
Text: as §1, §2

OCI-M1 cell line = assay: as above; type: cell-based; conditions: Acute myeloid leukemia
Text: as §1, §2

U251MG cell line = assay: as above; type: cell-based; conditions: Homo sapiens, U-251; Brain
Text: as §1, §2

OCI-AML2 cell line = assay: as above; type: cell-based
Text: as §1, §2

THP-1 cell line = assay: as above; type: cell-based; conditions: Homo sapiens, AML
Text: as §1, §2

LOVO cell line = assay: as above; type: cell-based; conditions: Homo sapiens, Colon
Text: as §1, §2

JHUEM3 cell line = assay: as above; type: cell-based; conditions: Endometrial
Text: as §1, §2

CMK cell line = assay: as above; type: cell-based; conditions: Homo sapiens, Acute megakaryocytic leukemia
Text: as §1, §2

SKM-1 cell line = assay: as above; type: cell-based
Text: as §1, §2

NB-4 cell line = assay: as above; type: cell-based; conditions: Homo sapiens, Acute promyelocytic leukemia
Text: as §1, §2

Daudi cell line = assay: as above; type: cell-based; conditions: Homo sapiens, NHL
Text: as §1, §2

OCI-AML4 cell line = assay: as above; type: cell-based
Text: as §1, §2

KE39 cell line = assay: as above; type: cell-based; conditions: Gastric
Text: as §1, §2

ML-2 cell line = assay: as above; type: cell-based
Text: as §1, §2

SU-DHL-8 cell line = assay: as above; type: cell-based; conditions: Homo sapiens, NHL
Text: as §1, §2

THLE2 cell line = assay: as above; type: cell-based; conditions: THLE-2; Human liver normal
Text: as §1, §2

BT-474 cell line = assay: as above; type: cell-based; conditions: Homo sapiens, Breast, read-out: IC50, BT474
Text: as §1, §2

PL-21 cell line = assay: as above; type: cell-based; conditions: Acute myeloid leukemia
Text: as §1, §2

Molp8 cell line = assay: as above; type: cell-based; conditions: Homo sapiens, MOLP-8; MM
Text: as §1, §2

SKOV3 cell line = assay: as above; type: cell-based; conditions: Homo sapiens, SK-OV-3; Ovarian
Text: as §1, §2

RPMI7951 cell line = assay: as above; type: cell-based; conditions: Homo sapiens, RPMI-7951; Skin
Text: as §1, §2

AGS cell line = assay: as above; type: cell-based; conditions: Homo sapiens, Gastric
Text: as §1, §2

MOLM13 cell line = assay: as above; type: cell-based
Text: as §1, §2

MV4-11 cell line = assay: as above; type: cell-based
Text: as §1, §2

SK-BR-3 cell line = assay: as above; type: cell-based; conditions: Homo sapiens, Breast, read-out: IC50, SKBR3
Text: as §1, §2

EOL-1 cell line = assay: as above; type: cell-based, human
Text: as §1, §2

[1] = tested on: Ramos (non-Hodgkins lymphoma) cell line; assay: In vitro antiproliferation assay, General Procedure 1 (WST-8); type: cell-based; conditions: Ramos cells; rituximab neoDegrader conjugates versus comparators; FIG. 13
Experimental: (§3) The ability of neoDegrader conjugates to inhibit cell growth was measured using in vitro anti-proliferation assay. […] Conjugates were diluted in complete cell growth medium using 4-fold serial dilutions and 100 µL was added per well. […] Viability of remaining cells was determined by colorimetric WST-8 assay (Dojindo Molecular Technologies, Inc., Rockville, MD, US). WST-8 was added to 10% of the final volume and plates were incubated at 37° C. in a humidified 5% CO2 incubator for 2-4 hours. Plates were analyzed by measuring the absorbance at 450 nm (A450) in a multi-well plate reader. Background A450 absorbance of wells with media and WST-8 only was subtracted from all values. The percent viability was calculated by dividing each treated sample value by the average value of wells with untreated cells. The percent viability value was plotted against the test sample concentration in a semi-log plot for each treatment. IC50 values were calculated automatically.

[2] = tested on: BT-474 breast cancer cell line; assay: as above; type: cell-based; conditions: Homo sapiens, BT-474, read-out: IC50, BT-474, conjugates DAR 8, comparators DAR not given
Experimental: as §3

[3] = tested on: SK-BR-3 breast cancer cell line; assay: as above; type: cell-based; conditions: SK-BR-3 cells; neoDegrader conjugates (DAR 8) versus comparators; FIGS. 7 and 8
Experimental: as §3

SKNO-1 cell line = assay: In vitro antiproliferation assay, General Procedure 2 (CCK-8); type: cell-based; conditions: leukemia, acute myeloid leukemia
Text: as §1, §2

OCI-AML-6 cell line = assay: as above; type: cell-based; conditions: leukemia, acute myeloid leukemia
Text: as §1, §2

Kasumi-6 cell line = assay: as above; type: cell-based; conditions: leukemia, acute myeloid, myeloblast
Text: as §1, §2

Kopn-8 cell line = assay: as above; type: cell-based; conditions: leukemia, B cell precursor leukemia
Text: as §1, §2

AML-193 cell line = assay: as above; type: cell-based; conditions: leukemia, acute monocytic, monocyte
Text: as §1, §2

PLB-985 cell line = assay: as above; type: cell-based; conditions: leukemia, acute myeloid leukemia (derivative of HL-60)
Text: as §1, §2

OCI-AML-5 cell line = assay: as above; type: cell-based; conditions: leukemia, acute myeloid leukemia
Text: as §1, §2

OCI-AML-1 cell line = assay: as above; type: cell-based; conditions: leukemia, acute myeloid leukemia
Text: as §1, §2

F-36P cell line = assay: as above; type: cell-based; conditions: leukemia, myelodysplastic syndrome
Text: as §1, §2

HNT-34 cell line = assay: as above; type: cell-based; conditions: leukemia, acute myeloid leukemia
Text: as §1, §2

[4] = tested on: HL-60 (acute myeloid leukemia) cell line; assay: In vitro antiproliferation assay, General Procedure 1 (WST-8); type: cell-based; conditions: AML; conjugates DAR 8, Mylotarg DAR not given
Experimental: as §3

[5] = Homo sapiens, HL-60, AML, read-out: IC50, HL-60
[6] = Homo sapiens, OCI-AML2, Acute myeloid leukemia, read-out: IC50, OCI-AML2
[7] = Homo sapiens, SKM-1, Acute myeloid leukemia, read-out: IC50, SKM-1
[8] = Acute myeloid leukemia, read-out: IC50, OCI-AML4
[9] = Homo sapiens, ML-2, Acute myelomonocytic leukemia, read-out: IC50, ML-2
[10] = Homo sapiens, MOLM-13, AML, read-out: IC50, MOLM13
[11] = Homo sapiens, MV4-11, Biphenotypic B myelomonocytic leukemia, read-out: IC50, MV4-11
[12] = Homo sapiens, EOL1, Acute myeloid leukemia, read-out: IC50, EOL-1

Row | IC50 (HL-60 cell line; [5]) | IC50 (SNU182 cell line) | IC50 (OCI-M2 cell line) | IC50 (OCI-M1 cell line) | IC50 (U251MG cell line) | IC50 (OCI-AML2 cell line; [6]) | IC50 (THP-1 cell line) | IC50 (LOVO cell line) | IC50 (SKM-1 cell line; [7]) | IC50 (Daudi cell line) | IC50 (OCI-AML4 cell line; [8]) | IC50 (SU-DHL-8 cell line) | IC50 (BT-474 cell line) | Compound | IC50 (JHUEM3 cell line) | IC50 (CMK cell line) | IC50 (NB-4 cell line) | IC50 (KE39 cell line) | IC50 (ML-2 cell line; [9]) | IC50 (THLE2 cell line) | IC50 (PL-21 cell line) | other results
1 | 3.02e-09 M | 8.86 nM | 21.1 nM | 104 nM | 35.8 nM | 2.91e-08 M | 65 nM | 750 nM | 1.89e-09 M | 9.17 nM | 7e-09 M | 18.4 nM | 6.37 nM | O=C1CCC(N2Cc3cc(CNC(=O)Nc4ccc(CCO)c(Cl)c4)ccc3C2=O)C(=O)N1 (stereo not drawn) [Compound P3, 1-(3-chloro-4-(2-hydroxyethyl)phenyl)-3-((2-(2,6-dioxopiperidin-3-yl)-1-oxoisoindolin-5-yl)methyl)urea] | 37.4 nM | 12.3 nM | 2.2 nM | 650 nM | 5.87e-10 M | 59.9 nM | 2.09 nM | IC50 (Molp8 cell line): 6.63 nM; IC50 (SKOV3 cell line): 99.7 nM; IC50 (RPMI7951 cell line): 26 nM; IC50 (AGS cell line): 650 nM; IC50 (MOLM13 cell line; [10]): 8.5e-09 M; IC50 (MV4-11 cell line; [11]): 7.83e-10 M; IC50 (SK-BR-3 cell line): 35 nM; IC50 (EOL-1 cell line; [12]): 7.33e-10 M
2 | 5.45e-09 M | 13 nM | 20.9 nM | 124 nM | 46 nM | > 1e-06 M | 85 nM | 119 nM | 3.77e-09 M | 14.3 nM | 1.69e-08 M | 19.8 nM | 2.9 nM | CNc1ccccc1NC(=O)NCc1ccc2c(c1)CN(C1CCC(=O)NC1=O)C2=O (stereo not drawn) [Compound P4, 3-[[2-(2,6-dioxopiperidin-3-yl)-1-oxo-3H-isoindol-5-yl]methyl]-1-[2-(methylamino)phenyl]urea] | 58.6 nM | 1000 nM | 2.63 nM | 119 nM | 1.27e-09 M | 6.27 nM | 2.28 nM | IC50 (Molp8 cell line): 7.42 nM; IC50 (SKOV3 cell line): 138 nM; IC50 (RPMI7951 cell line): 30.2 nM; IC50 (AGS cell line): 650 nM; IC50 (MOLM13 cell line; [10]): 9.5e-09 M; IC50 (MV4-11 cell line; [11]): 1.91e-09 M; IC50 (SK-BR-3 cell line): 64.6 nM; IC50 (EOL-1 cell line; [12]): 1.88e-09 M; antiproliferative activity compared, in words [1]: less active; IC50 [2]: 2.9 nM; anti-proliferative activity compared, in words [3]: significantly less active
3 | – | – | – | – | – | – | – | – | – | – | – | – | – | Mylotarg: approved agent, known antibody drug conjugate MYLOTARG | – | – | – | – | – | – | – | IC50 (HL-60 cell line; leukemia, acute promyelocytic, read-out: IC50 (M), HL-60): 3.26e-10 M; IC50 (SKNO-1 cell line): 13.4 nM; IC50 (OCI-AML2 cell line; leukemia, acute myeloid leukemia, read-out: IC50 (M), OCI-AML-2): 3.94e-11 M; IC50 (OCI-AML-6 cell line): > 20 nM; IC50 (SKM-1 cell line; leukemia, myelodysplastic syndrome, read-out: IC50 (M), SKM-1): 2.24e-10 M; IC50 (Kasumi-6 cell line): > 20 nM; IC50 (Kopn-8 cell line): 0.687 nM; IC50 (AML-193 cell line): > 20 nM; IC50 (PLB-985 cell line): 7.14 nM; IC50 (OCI-AML4 cell line; leukemia, acute myeloid leukemia, read-out: IC50 (M), OCI-AML-4): 2.37e-10 M; IC50 (ML-2 cell line; leukemia, acute myelomonocytic leukemia, read-out: IC50 (M), ML-2): 5.02e-11 M; IC50 (OCI-AML-5 cell line): 0.0783 nM; IC50 (OCI-AML-1 cell line): 0.224 nM; IC50 (F-36P cell line): > 20 nM; IC50 (HNT-34 cell line): 3.77 nM; IC50 (MOLM13 cell line; leukemia, acute,myeloid,leukemia suspension, read-out: IC50 (M), Molm-13): 2.7e-11 M; IC50 (MV4-11 cell line; leukemia, biphenotypic B myelomonocytic, read-out: IC50 (M), MV-4-11): 5.32e-11 M; IC50 (EOL-1 cell line; Leukemia, Human eosinophilic leukaemia, read-out: IC50 (M), EoL-1): 6.87e-11 M; IC50 [4]: 0.0011 nM
